Data taken from patent USRE34918E, “Azaazulene compounds which are useful as antiallergic and antiinflammatory agents” (Kaken Pharmaceutical Co., Ltd., priority 1988, dated 1995).
In brackets after ≈: the same amount, converted by molar mass. Several values for one entry are separate records, joined by “and”; a condition that tells them apart may be missing. Identical values can stand only once.

Experiments:
[1] = system: carrageenin edema in a foot-pad of rat; test: Effect on carrageenin edema in a foot-pad of rat; format: in vivo, rat (male Wister); details: 4 hours after carrageenin; for Inhibition rate against swelling: vs 0.5% CMC group
Experimental: The test was carried out according to the modified method on a method of Winter et al [Proc. Soc. Exp. Biol Med., 111, 544-547 (1962)]. Five male Wister rats weighing 148 to 162 g which were subjected to fasting for 24 hours were used as one group.
The test compound was suspended in 0.5% aqueous solution of CMC, and the suspension was administered orally in a amount of 50 mg/kg. After 60 minutes, 0.1 ml of 1% carrageenin solution in physiological saline was injected subcutaneously into the foot-pad of the left hind foot. Four hours after the injection of carrageenin, the volume of the foot-pad was measured by the apparatus for measurement of foot-pad volume in rat (commercially available from Ugobasile).
Swelling volume was calculated from the difference between a volume of foot-pad before inflaming the foot-pad, i.e. normal volume and that after inflaming it. Effect of a test compound was expressed as inhibition rate against swelling by calculating percentage in comparison with the 0.5% CMC administration group.
Indomethacin (commercially available from Merck Co.) was used as a positive comparative drug.

[2] = system: histamine release from rat mast cell; test: Inhibitory activity against histamine release from rat mast cell; format: cell-based; details: 10 μg/ml, read-out: Inhibitory rate against histamine release
Experimental: An anti-dinitrophenylated-ovalbumin (anti DNP-OVA) rat antiserum having 800 of PCA titer in homologous passive cutaneous anaphylaxis reaction in rats for 48 hours was diluted double with physiological saline, and 1 ml of diluted antiserum was injected intraperitoneally into rats to be passively sensitized. On the next day, peritoneal exudation cell (hereinafter referred to as "PEC") was collected. The collected PEC was washed with a medium containing 0.1% BSA, and 1.5×10^5 of the PEC were added to each test tube. AFter incubation at 37° C. for 10 minutes, 50 μl of test compound solution in a same medium was added thereto. After 30 seconds, 50 μl of antigen solution (DVA-OVA 100 μg/ml) was further added thereto to give the total amount of 500 μl of the reaction mixture, and histamine release reaction was induced. After 10 minutes, 1 ml of physiological saline with cooled Tris buffered solution containing 1 mM EDTA were added thereto to stop the reaction. After centrifugation, the amount of histamine in supernatant was determined by fluorescence method according to the method of Shore et al [cf. J. Pharmacol. Exp. Ther., 127, 182 (1959)]. Inhibition rate against histamine release was calculated according to the following equation.
Inhibition rate against histamine release [formula] M: Amount of histamine in supernatant under addition of antigen and non-addition of test compound
S: Amount of histamine in supernatant under addition of antigen and test compound
B: Amount of histamine in supernatant under non-addition of antigen and test compound.
The test compound was used in a concentration of 10 μg/ml.

5-lipoxygenase = target: T1, 5-lipoxygenase (Cavia porcellus, UniProt A0A286X958); test: 5-lipoxygenase inhibiting activity in guinea pig; format: biochemical; details: read-out: Inhibition rate against 5-lipoxygenase activity
T1 construct: 5-lipoxygenase was prepared with polymorphonuclear leukocyte obtained from peritoneal cavity; endogenous in cells; host or cells: guinea pig peritoneal polymorphonuclear leukocytes (casein-elicited)
T1 sequence (A0A286X958 1-674): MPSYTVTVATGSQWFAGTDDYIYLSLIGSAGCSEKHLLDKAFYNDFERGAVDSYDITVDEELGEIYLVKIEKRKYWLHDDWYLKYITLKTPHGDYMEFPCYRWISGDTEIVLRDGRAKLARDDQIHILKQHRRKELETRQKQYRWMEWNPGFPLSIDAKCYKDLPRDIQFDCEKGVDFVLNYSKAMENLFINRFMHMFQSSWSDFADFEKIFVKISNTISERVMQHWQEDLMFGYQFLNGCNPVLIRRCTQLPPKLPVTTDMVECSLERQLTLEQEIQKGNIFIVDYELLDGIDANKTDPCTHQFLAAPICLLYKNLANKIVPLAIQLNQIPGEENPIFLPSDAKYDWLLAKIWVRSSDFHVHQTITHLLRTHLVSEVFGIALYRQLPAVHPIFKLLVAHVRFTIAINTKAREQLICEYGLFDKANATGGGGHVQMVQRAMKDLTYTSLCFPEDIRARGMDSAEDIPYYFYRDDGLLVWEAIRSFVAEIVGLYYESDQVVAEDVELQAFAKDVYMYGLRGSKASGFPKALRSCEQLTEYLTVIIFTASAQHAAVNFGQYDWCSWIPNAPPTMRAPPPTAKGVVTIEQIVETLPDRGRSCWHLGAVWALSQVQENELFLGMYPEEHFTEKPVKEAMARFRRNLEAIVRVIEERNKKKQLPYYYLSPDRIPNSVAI
Experimental: The test was carried out according to the method of Ochi [cf. J. Biol. Chem., 258, 5754-5758 (1983)]. Two % casein solution in saline was injected intraperitoneally into guinea pigs in an amount of 1/10 of body weight. After 16 hours, 5-lipoxygenase was prepared with polymorphonuclear leukocyte obtained from peritoneal cavity. Test compound and 5-lipoxygenase were pre-incubated at 30° C. for 10 minutes, CaCl2 (calcium chloride) and ^14 C-arachidonic acid were added thereto, and the resulting mixture was incubated for 20 minutes. A mixture of ethyl acetate/methanol/0.2M citric acid=30/4/1 (by volume) was added thereto to stop the reaction. After centrifugation, the organic solvent layer was spotted on a plate for thin layer chromatography and developed. Effect of the test compound was determined from the amount of ^14 C-5-hydroxyeicosatetraenoic acid (hereinafter referred to as "5-HETE") formed from ^14 C-arachidonic acid. Radioactivity of 5-HETE position was measured with a liquid scintillation counter.
Inhibition rate against 5-lipoxygenase activity was calculated according to the following equation.
Inhibition rate against 5-lipoxygenase activity [formula] A: Value of radioactivity in the control group B: Value of radioactivity in the test compound group
Each test compound was used in a concentration of 10 μM.

[3] = system: smooth musculus trachealis; test: Relaxant activity of smooth musculus trachealis in guinea pig; design: species or system guinea pig (male Hartley); details: Cavia porcellus; tracheal chain strips, 37° C.; read-out: Concentration for 50% relaxation
Experimental: Male Hartley guinea pigs weighing 350 to 550 g were bleed to death, and immediately the tracheae were extirpated. According to the method of Takagi et al [cf. Chem. Pharm. Bull., 8, 716 (1958)], tracheal chain strips was prepared, and the sample was suspended on Magnus apparatus under addition of load of 0.5 g. The test was carried out at 37° C. of liquid temperature. After position of tonus was examined with histamine (10^-6 g/ml) and isoproterenol (10^-7 g/ml), the test compound dissolved in a mixture of dimethyl sulfoxide and physiological saline was added thereto, and the test compound was investigated with respect to the effect on smooth musculus trachealis. Theophylline was used as a positive comparative drug. The relaxation and the contraction of smooth musculus trachealis were recorded on servocorder (SR 6342: commercially available from Watanabe Instruments Corp.) by connecting Isotonic Transducer (TD-1125: commercially available from Nihon Kohden Kogyo Co., Ltd.) to a balancing box.

[4] = 5 mg/kg p.o. (positive comparative drug)

| SMILES | Swelling volume 4 hours after inflaming, mean ± standard error ([1]; 50 mg/kg p.o.) | Inhibition rate against swelling ([1]; 50 mg/kg p.o.) | inhibition at 10 µg/mL [2] | inhibition at 10 µM (5-lipoxygenase) | EC50 [3] | Swelling volume 4 hours after inflaming, mean ± standard error [1, 4] | Inhibition rate against swelling [1, 4] |
| --- | --- | --- | --- | --- | --- | --- | --- |
| CC(C)c1cccc2c(-c3nnn[nH]3)c(=O)n(Cc3ccc(F)cc3)c-2c1 [Example 10, 1-(4-Fluorobenzyl)-7-iso-propyl-3-(5-tetrazolyl)-1-azaazulane-2-one] | 0.58 mL and 0.58 ± 0.036 mL | 35.6% | 99.8% | 41.8% | 3.4 mg/L (≈ 9.36 µM) | – | – |
| COc1ccc2c(c1)c(CC(=O)O)c(C)n2C(=O)c1ccc(Cl)cc1 [Indomethacin, reference compound] | – | – | – | – | – | 0.47 ± 0.056 mL | 47.8% |
